Reference: patent US9682961B2, “Quinazoline derivative” (CARNA BIOSCIENCES, INC., priority 2013, dated 2017)

Tested on: Wnt/β-catenin signaling pathway
Assay: TCF-luciferase reporter gene assay (Wnt-3a stimulated HEK 293 cells)
Format: cell-based
Conditions: Homo sapiens, HEK293, Wnt-3a stimulation, read-out: Inhibitory activity against the Wnt/β-catenin signaling pathway
Protocol: Evaluation of inhibitory activity of the compounds of the present invention against the Wnt/β-catenin signaling pathway was performed by evaluating the inhibitory activity of the compounds of the present invention against the Wnt/β-catenin signaling pathway activated by the Wnt-3a ligand using a commercially available TCF-luciferase reporter gene assay system.
In a T75 flask, HEK 293 cells (ATCC No. CRL-1573) were added to a DMEM medium (manufactured by NACALAI TESQUE, INC., No. 08459-35) supplemented with 10% FBS (AusGeneX PTY LTD.) and 1% Penicillin/Streptomycin (NACALAI TESQUE, INC.). The cells in the flask were cultured in a 5% CO2 incubator.
The cultured HEK 293 cells were diluted with a DMEM medium supplemented with only 10% FBS so as to have a cell concentration of 2×10^5 cells/mL, and 100 μL each of the diluted cells were seeded into respective wells of 96-well plates (PerkinElmer Inc., ViewPlate No. 6005181), followed by culturing overnight in the 5% CO2 incubator. To an OptiMEM medium (Invitrogen® No. 11058), pGL4.49 [luc2p/TCF-LEF-RE/Hygro] plasmid DNA (Promega Corporation) and FuGENE® HD (Promega No. E2691) were added so as to have concentrations of 1 μg/mL and 3 μg/mL, respectively, to prepare a transfection solution as described in the protocol attached to the reagent. To the respective wells containing the HEK 293 cells cultured overnight, 100 μL each of the transfection solution was added gently, followed by culturing overnight in the 5% CO2 incubator to perform transfection.
To a DMEM medium, 0.5% charcoal/dextran treated Fetal Bovine Serum (Thermo Scientific No. SH30068.02) and LiCl (Sigma-Aldrich No. L9650) were added to prepare a LiCl-containing medium (final concentration of LiCl: 10 mM). The medium in the respective wells of the HEK 293 cells cultured overnight and transfected with a reporter gene was removed by decantation. The LiCl-containing medium (90 μL) was added gently to each well, followed by culturing overnight in the 5% CO2 incubator.
A DMSO stock solution of the compound to be tested was diluted 100-fold with a LiCl-containing medium so as to prepare a solution of the compound to be tested, which is 10 times the test concentration. Further, Recombinant Mouse Wnt-3a (R&D Systems, Inc. #1324-WN) was dissolved in a 0.1% BSA-PBA solution so as to have a concentration of 40 μg/mL, and the resultant solution was diluted with a LiCl-containing medium so as to have a concentration of 100 ng/mL, to prepare a Wnt-3a solution. To each well of the HEK 293 cells cultured overnight in the LiCl-containing medium, 10 μL each of the solution of the compound to be tested was added, followed by culturing in the 5% CO2 incubator for 2 hours (the final concentration of the compound to be tested: 3-0.03 μM). Thereafter, 10 μL each of the Wnt-3a solution was added to the respective wells, followed by further culturing for 5 hours.
Using ONE-Glo™ Luciferase Assay System (Promega Corporation, No. E6110), the luciferase activity of the cells in the wells was measured by a microplate reader (Synergy H1, BioTek Instruments, Inc.) An IC50 value was calculated from the luminescence intensity of each compound concentration, supposing that the luminescence intensity of a group with no addition of the compound and with Wnt-3a stimulation was 100%, and that the luminescence intensity of a group with no addition of the compound and with no Wnt-3a stimulation was 0%.

| SMILES | IC50 [nM] |
| --- | --- |
| Cc1nc2ccc(Nc3ncc4ccc(Br)c(O[C@H]5CC[C@@H](O)CC5)c4n3)cc2[nH]1 [Example 18, cis-4-({7-bromo-2-[(2-methyl-1H-benzo[d]imidazol-6-yl)amino]quinazolin-8-yl}oxy)cyclohexanol] | 300 to 1000 |
| Cc1nc2c(Br)cc(Nc3ncc4cccc(O[C@H]5CC[C@@H](O)CC5)c4n3)cc2[nH]1 [Example 19, cis-4-({2-[(4-bromo-2-methyl-1H-benzo[d]imidazol-6-yl)amino]quinazolin-8-yl}oxy)cyclohexanol] | 1000 to 3000 |
| Cc1nc2c(C)cc(Nc3ncc4cccc(O[C@H]5CC[C@@H](O)CC5)c4n3)cc2[nH]1 [Example 20, cis-4-({2-[(2,4-dimethyl-1H-benzo[d]imidazol-6-yl)amino]quinazolin-8-yl}oxy)cyclohexanol] | 300 to 1000 |
| COCc1nc2ccc(Nc3ncc4cccc(O[C@H]5CC[C@@H](O)CC5)c4n3)cc2[nH]1 [Example 25, cis-4-[(2-{[2-(methoxymethyl)-1H-benzo[d]imidazol-6-yl]amino}quinazolin-8-yl)oxy]cyclohexanol] | 300 to 1000 |
| O[C@H]1CC[C@@H](Oc2cccc3cnc(Nc4ccc5nc(C(F)(F)F)[nH]c5c4)nc23)CC1 [Example 26, cis-4-((2-{[2-(trifluoromethyl)-1H-benzo[d]imidazol-6-yl]amino}quinazolin-8-yl)oxy)cyclohexanol] | 1000 to 3000 |
| Cc1cc2nc[nH]c2cc1Nc1ncc2cccc(O[C@H]3CC[C@@H](O)CC3)c2n1 [Example 30, cis-4-({2-[(5-methyl-1H-benzo[d]imidazol-6-yl)amino]quinazolin-8-yl}oxy)cyclohexanol] | 300 to 1000 |
| O[C@H]1CC[C@@H](Oc2c(Br)ccc3cnc(Nc4ccc5nc[nH]c5c4)nc23)CC1 [Example 31] | < 300 |
| O[C@H]1CC[C@@H](Oc2cccc3cnc(Nc4ccc5ncccc5c4)nc23)CC1 [Example 35, cis-4-{[2-(quinolin-6-ylamino)quinazolin-8-yl]oxy}cyclohexanol] | 300 to 1000 |
| O[C@H]1CC[C@@H](Oc2cccc3cnc(Nc4ccc5ccncc5c4)nc23)CC1 [Example 40, cis-4-{[2-(isoquinolin-7-ylamino)quinazolin-8-yl]oxy}cyclohexanol] | 1000 to 3000 |
| O[C@H]1CC[C@@H](Oc2cccc3cnc(Nc4cccc5cnccc45)nc23)CC1 [Example 41, cis-4-{[2-(isoquinolin-5-ylamino)quinazolin-8-yl]oxy}cyclohexanol] | 300 to 1000 |
| O[C@H]1CC[C@@H](Oc2c(F)ccc3cnc(Nc4ccc5ncsc5c4)nc23)CC1 [Example 42, cis-4-{[2-(benzo[d]thiazol-6-ylamino)-7-fluoroquinazolin-8-yl]oxy}cyclohexanol] | < 300 |
| O[C@H]1CC[C@@H](Oc2cccc3cnc(Nc4ccnc5cc(F)ccc45)nc23)CC1 [Example 45, cis-4-({2-[(7-fluoroquinolin-4-yl)amino]quinazolin-8-yl}oxy)cyclohexanol] | 300 to 1000 |

Other lines, results leading:

| IC50 [nM] | SMILES |
| --- | --- |
| < 300 | O[C@H]1CC[C@@H](Oc2cccc3cnc(Nc4ccc5[nH]c(CN6CCCC6)nc5c4)nc23)CC1 [Example 13, cis-4-[(2-{[2-(pyrrolidin-1-ylmethyl)-1H-benzo[d]imidazol-5-yl]amino}quinazolin-8-yl)oxy]cyclohexanol] |
| 300 to 1000 | OCc1nc2cc(Nc3ncc4cccc(O[C@H]5CC[C@@H](O)CC5)c4n3)ccc2[nH]1 [Example 14, cis-4-[(2-{[2-(hydroxymethyl)-1H-benzo[d]imidazol-5-yl]amino}quinazolin-8-yl)oxy]cyclohexanol] |
| 300 to 1000 | Cc1ccc2cnc(Nc3ccc4nc[nH]c4c3)nc2c1O[C@H]1CC[C@@H](O)CC1 [Example 17, cis-4-({2-[(1H-benzo[d]imidazol-6-yl)amino]-7-methylquinazolin-8-yl}oxy)cyclohexanol] |
| 300 to 1000 | C[C@H](O)c1nc2ccc(Nc3ncc4cccc(O[C@H]5CC[C@@H](O)CC5)c4n3)cc2[nH]1 [Example 27, cis-4-{[2-({2-[(S)-1-hydroxyethyl]-1H-benzo[d]imidazol-6-yl}amino)quinazolin-8-yl]oxy}cyclohexanol] |
| < 300 | OCc1cc(Nc2ncc3cccc(O[C@H]4CC[C@@H](O)CC4)c3n2)cc2[nH]cnc12 [Example 29, cis-4-[(2-{[4-(hydroxymethyl)-1H-benzo[d]imidazol-6-yl]amino}quinazolin-8-yl)oxy]cyclohexanol] |
| 300 to 1000 | O[C@H]1CC[C@@H](Oc2cc(F)cc3cnc(Nc4ccc5nc[nH]c5c4)nc23)CC1 [Example 32, cis-4-({2-[(1H-benzo[d]imidazol-6-yl)amino]-6-fluoroquinazolin-8-yl}oxy)cyclohexanol] |
| < 300 | O[C@H]1CC[C@@H](Oc2cccc3cnc(Nc4ccc5scnc5c4)nc23)CC1 [Example 36, cis-4-{[2-(benzo[d]thiazol-5-ylamino)quinazolin-8-yl]oxy}cyclohexanol] |
| < 300 | O[C@H]1CC[C@@H](Oc2cccc3cnc(Nc4ccnc5ccccc45)nc23)CC1 [Example 37, cis-4-{[2-(quinolin-4-ylamino)quinazolin-8-yl]oxy}cyclohexanol] |
| 300 to 1000 | Cc1ccc2cc(Nc3ncc4cccc(O[C@H]5CC[C@@H](O)CC5)c4n3)ccc2n1 [Example 38, cis-4-({2-[(2-methylquinolin-6-yl)amino]quinazolin-8-yl}oxy)cyclohexanol] |
| 300 to 1000 | O[C@H]1CC[C@@H](Oc2cccc3cnc(Nc4ccc5cnccc5c4)nc23)CC1 [Example 39, cis-4-{[2-(isoquinolin-6-ylamino)quinazolin-8-yl]oxy}cyclohexanol] |
| < 300 | O[C@H]1CC[C@@H](Oc2c(F)ccc3cnc(Nc4ccc5ncccc5c4)nc23)CC1 [Example 43, cis-4-{[7-fluoro-2-(quinolin-6-ylamino)quinazolin-8-yl]oxy}cyclohexanol] |
| < 300 | OCc1n[nH]c2cc(Nc3ncc4ccc(F)c(O[C@H]5CC[C@@H](O)CC5)c4n3)ccc12 [Example 44, cis-4-[(7-fluoro-2-{[3-(hydroxymethyl)-1H-indazol-6-yl]amino}quinazolin-8-yl)oxy]cyclohexanol] |
| 300 to 1000 | COc1ccc2c(Nc3ncc4cccc(O[C@H]5CC[C@@H](O)CC5)c4n3)ccnc2c1 [Example 46, cis-4-({2-[(7-methoxyquinolin-4-yl)amino]quinazolin-8-yl}oxy)cyclohexanol] |
